# According to patent publication US11987588B2, “Modulators of the beta-3 adrenergic receptor useful for the treatment or prevention of heart failure and disorders related thereto” (Arena Pharmaceuticals, Inc., priority 2017, dated 2024):
# pIC50: −log10 of the molar value.
# Molecular target: Beta-3 Adrenergic Receptor (Homo sapiens (Human), UniProt P13945)
# Test: Homogeneous Time-Resolved Fluorescence (HTRF) cAMP antagonist assay, IC50 determination
# Type: cell-based
# Details: CHO-K1 cells stably expressing recombinant receptor, isoproterenol at EC90
# Outline: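 CHO-K1 cells stably expressing the recombinant receptor were preincubated with compound (10-point, 5-fold dilutions; top final typically 10 or 100 μM) in PBS with 1 mM IBMX, then stimulated with isoproterenol at its EC90 for 1 h at room temperature. cAMP was read by HTRF against an on-plate standard curve.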
# Chain of Beta-3 Adrenergic Receptor (P13945 whole entry, species assumed): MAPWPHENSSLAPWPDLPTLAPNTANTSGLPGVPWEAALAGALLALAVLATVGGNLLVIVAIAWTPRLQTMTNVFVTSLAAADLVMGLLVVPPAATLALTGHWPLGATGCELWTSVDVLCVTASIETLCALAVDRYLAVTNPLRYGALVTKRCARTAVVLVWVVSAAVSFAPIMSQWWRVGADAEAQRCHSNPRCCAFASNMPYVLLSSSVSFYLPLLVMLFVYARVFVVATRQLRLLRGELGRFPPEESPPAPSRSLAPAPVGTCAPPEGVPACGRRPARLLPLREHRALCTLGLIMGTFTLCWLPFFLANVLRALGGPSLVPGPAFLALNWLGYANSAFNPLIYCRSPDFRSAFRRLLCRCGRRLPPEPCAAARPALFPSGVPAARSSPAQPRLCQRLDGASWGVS
row,Structure (SMILES),pIC50
1,"CNS(=O)(=O)c1cccc(OC[C@@H](O)CN[C@@H]2COC3(CCN(S(=O)(=O)c4ccc5c(c4)CCCO5)CC3)C2)c1 [Compound 183, 3—((S)-3-((S)-8-(chroman-6-ylsulfonyl)-1-oxa-8-azaspiro[4.5]decan-3-ylamino)-2-hydroxypropoxy)-N-methylbenzenesulfonamide]",7.79
2,"CCNS(=O)(=O)c1cccc(OC[C@@H](O)CNC2COC3(CCN(S(=O)(=O)c4cccc(-c5cnn(CC)c5)c4)CC3)C2)c1 (stereo partly drawn) [Compound 209, N-ethyl-3-((2S)-3-(8-(3-(1-ethyl-1H-pyrazol-4-yl)phenylsulfonyl)-1-oxa-8-azaspiro[4.5]decan-3-ylamino)-2-hydroxypropoxy)benzenesulfonamide]",7.39
3,"CNS(=O)(=O)c1cccc(OC[C@@H](O)CN[C@H]2COC3(CCN(S(=O)(=O)c4cccc(-c5cnn(C)c5)c4)CC3)C2)c1 [Compound 215, 3-((S)-2-hydroxy-3-((R)-8-(3-(1-methyl-1H-pyrazol-4-yl)phenylsulfonyl)-1-oxa-8-azaspiro[4.5]decan-3-ylamino)propoxy)-N-methylbenzenesulfonamide]",8.13
4,"CNS(=O)(=O)c1cccc(OC[C@@H](O)CNC2COC3(CCN(S(=O)(=O)c4cccc(-c5cn[nH]c5)c4)CC3)C2)c1 (stereo partly drawn) [Compound 64, 3-((2S)-3-(8-(3-(1H-pyrazol-4-yl)phenylsulfonyl)-1-oxa-8-azaspiro[4.5]decan-3-ylamino)-2-hydroxypropoxy)-N-methylbenzenesulfonamide]",7.95
5,"CNS(=O)(=O)c1cccc(OC[C@@H](O)CN[C@H]2COC3(CCN(S(=O)(=O)c4ccc5c(c4)NC(=O)CO5)CC3)C2)c1 [Compound 279, 3-((S)-2-hydroxy-3-((R)-8-(3-oxo-3,4-dihydro-2H-benzo[b][1,4]oxazin-6-ylsulfonyl)-1-oxa-8-azaspiro[4.5]decan-3-ylamino)propoxy)-N-methylbenzenesulfonamide]",7.50
6,"CNS(=O)(=O)c1cccc(OC[C@@H](O)CNC2COC3(CCN(S(=O)(=O)c4cccc5nsnc45)CC3)C2)c1 (stereo partly drawn) [Compound 128, 3-((2S)-3-(8-(benzo[c][1,2,5]thiadiazol-4-ylsulfonyl)-1-oxa-8-azaspiro[4.5]decan-3-ylamino)-2-hydroxypropoxy)-N-methylbenzenesulfonamide]",7.94
7,"CNS(=O)(=O)c1cccc(OC[C@@H](O)CNC2COC3(CCN(S(=O)(=O)c4ccc(-c5ccc(C(F)(F)F)cc5)cc4)CC3)C2)c1 (stereo partly drawn) [Compound 121, 3-((2S)-2-hydroxy-3-(8-(4′-(trifluoromethyl)biphenyl-4-ylsulfonyl)-1-oxa-8-azaspiro[4.5]decan-3-ylamino)propoxy)-N-methylbenzenesulfonamide]",7.17
8,"CNS(=O)(=O)c1cccc(OC[C@@H](O)CNC2COC3(CCN(S(=O)(=O)c4ccc(C)c(Br)c4)CC3)C2)c1 (stereo partly drawn) [Compound 218, 3-((2S)-3-(8-(3-bromo-4-methylphenylsulfonyl)-1-oxa-8-azaspiro[4.5]decan-3-ylamino)-2-hydroxypropoxy)-N-methylbenzenesulfonamide]",7.41
9,"CNS(=O)(=O)c1cccc(OC[C@@H](O)CNC2COC3(CCN(S(=O)(=O)c4ccc(C)cc4)CC3)C2)c1 (stereo partly drawn) [Compound 53, 3-((2S)-2-hydroxy-3-(8-tosyl-1-oxa-8-azaspiro[4.5]decan-3-ylamino)propoxy)-N-methylbenzenesulfonamide]",7.66
10,"CNS(=O)(=O)c1cccc(OC[C@@H](O)CNC2COC3(CCN(S(=O)(=O)c4ccoc4)CC3)C2)c1 (stereo partly drawn) [Compound 192, 3-((2S)-3-(8-(furan-3-ylsulfonyl)-1-oxa-8-azaspiro[4.5]decan-3-ylamino)-2-hydroxypropoxy)-N-methylbenzenesulfonamide]",7.55
11,"CNS(=O)(=O)c1cccc(OC[C@@H](O)CNC2COC3(CCN(S(=O)(=O)c4cccc(-c5ccc(CN)cc5)c4)CC3)C2)c1 (stereo partly drawn) [Compound 79, 3-((2S)-3-(8-(4′-(aminomethyl)biphenyl-3-ylsulfonyl)-1-oxa-8-azaspiro[4.5]decan-3-ylamino)-2-hydroxypropoxy)-N-methylbenzenesulfonamide]",8.15
12,"CNS(=O)(=O)c1cccc(OC[C@@H](O)CNC2COC3(CCN(S(=O)(=O)Cc4ccccc4)CC3)C2)c1 (stereo partly drawn) [Compound 172, 3-((2S)-3-(8-(benzylsulfonyl)-1-oxa-8-azaspiro[4.5]decan-3-ylamino)-2-hydroxypropoxy)-N-methylbenzenesulfonamide]",7.10
13,"CNS(=O)(=O)c1cccc(OC[C@@H](O)CNC2COC3(CCN(S(=O)(=O)c4cccc(-c5ccc(S(N)(=O)=O)cc5)c4)CC3)C2)c1 (stereo partly drawn) [Compound 85, 3′-(3-((S)-2-hydroxy-3-(3-(N-methylsulfamoyl)phenoxy)propylamino)-1-oxa-8-azaspiro[4.5]decan-8-ylsulfonyl)biphenyl-4-sulfonamide]",8.01

# Now from value to compound:
row,pIC50,Structure (SMILES)
1,6.37,"CCCCCCCc1cnc(N2CCC3(CC2)C[C@@H](NC[C@H](O)COc2cccc(S(=O)(=O)NC)c2)CO3)nc1 [Compound 578, 3-((S)-3-((R)-8-(5-heptylpyrimidin-2-yl)-1-oxa-8-azaspiro[4.5]decan-3-ylamino)-2-hydroxypropoxy)-N-methylbenzenesulfonamide]"
2,6.58,"CNS(=O)(=O)c1cccc(OC[C@@H](O)CN[C@H]2COC3(CCN(c4ncc(-c5ccccc5)cn4)CC3)C2)c1 [Compound 580, 3-((S)-2-hydroxy-3-((R)-8-(5-phenylpyrimidin-2-yl)-1-oxa-8-azaspiro[4.5]decan-3-ylamino)propoxy)-N-methylbenzenesulfonamide]"
3,7.51,"CNS(=O)(=O)c1cccc(OC[C@@H](O)CNC2COC3(CCN(S(=O)(=O)c4cccc(-c5ccc(CNCCOC)cc5)c4)CC3)C2)c1 (stereo partly drawn) [Compound 340, 3-((2S)-2-hydroxy-3-(8-(4′-((2-methoxyethylamino)methyl)biphenyl-3-ylsulfonyl)-1-oxa-8-azaspiro[4.5]decan-3-ylamino)propoxy)-N-methylbenzenesulfonamide]"
4,7.29,"C[C@H](CO)NS(=O)(=O)c1cccc(OC[C@@H](O)CN[C@@H]2COC3(CCN(S(=O)(=O)c4cccc(-c5ccc(CN)cc5)c4)CC3)C2)c1 [Compound 424, 3-((S)-3-((S)-8-(4′-(aminomethyl)biphenyl-3-ylsulfonyl)-1-oxa-8-azaspiro[4.5]decan-3-ylamino)-2-hydroxypropoxy)-N—((R)-1-hydroxypropan-2-yl)benzenesulfonamide]"
5,7.29,"NS(=O)(=O)c1cccc(OC[C@@H](O)CN[C@H]2COC3(CCN(S(=O)(=O)c4ccc5c(c4)CCCO5)CC3)C2)c1 [Compound 565, 3-((S)-3-((R)-8-(chroman-6-ylsulfonyl)-1-oxa-8-azaspiro[4.5]decan-3-ylamino)-2-hydroxypropoxy)benzenesulfonamide]"
6,7.04,"CNS(=O)(=O)c1cccc(OC[C@@H](O)CNC2COC3(CCN(S(=O)(=O)c4ccc5oncc5c4)CC3)C2)c1 (stereo partly drawn) [Compound 327, 3-((2S)-3-(8-(benzo[d]isoxazol-5-ylsulfonyl)-1-oxa-8-azaspiro[4.5]decan-3-ylamino)-2-hydroxypropoxy)-N-methylbenzenesulfonamide]"
7,7.76,"CNS(=O)(=O)c1cccc(OC[C@@H](O)CN[C@H]2COC3(CCN(S(=O)(=O)c4cccc(-c5cc[nH]n5)c4)CC3)C2)c1 [Compound 296, 3-((S)-3-((R)-8-(3-(1H-pyrazol-3-yl)phenylsulfonyl)-1-oxa-8-azaspiro[4.5]decan-3-ylamino)-2-hydroxypropoxy)-N-methylbenzenesulfonamide]"
8,8.16,"CNS(=O)(=O)c1cccc(OC[C@@H](O)CN[C@H]2COC3(CCN(S(=O)(=O)c4cnc5ccn(C)c5c4)CC3)C2)c1 [Compound 526, 3-((S)-2-hydroxy-3-((R)-8-(1-methyl-1H-pyrrolo[3,2-b]pyridin-6-ylsulfonyl)-1-oxa-8-azaspiro[4.5]decan-3-ylamino)propoxy)-N-methylbenzenesulfonamide]"
9,7.46,"CNS(=O)(=O)c1cccc(OC[C@@H](O)CNC2COC3(CCN(S(=O)(=O)c4cccc(-c5ccc(CNCC(C)C)cc5)c4)CC3)C2)c1 (stereo partly drawn) [Compound 319, 3-((2S)-2-hydroxy-3-(8-(4′-((isobutylamino)methyl)biphenyl-3-ylsulfonyl)-1-oxa-8-azaspiro[4.5]decan-3-ylamino)propoxy)-N-methylbenzenesulfonamide]"
10,7.12,"CNS(=O)(=O)c1cccc(OC[C@@H](O)CN[C@H]2COC3(CCN(S(=O)(=O)c4cnc5c(c4)OCCO5)CC3)C2)c1 [Compound 480, 3-((S)-3-((R)-8-(2,3-dihydro-[1,4]dioxino[2,3-b]pyridin-7-ylsulfonyl)-1-oxa-8-azaspiro[4.5]decan-3-ylamino)-2-hydroxypropoxy)-N-methylbenzenesulfonamide]"
11,7.48,"CNS(=O)(=O)c1cccc(OC[C@@H](O)CN[C@H]2COC3(CCN(S(=O)(=O)c4cnc5c(c4)ncn5C)CC3)C2)c1 [Compound 475, 3-((S)-2-hydroxy-3-((R)-8-(3-methyl-3H-imidazo[4,5-b]pyridin-6-ylsulfonyl)-1-oxa-8-azaspiro[4.5]decan-3-ylamino)propoxy)-N-methylbenzenesulfonamide]"
12,7.72,"CNS(=O)(=O)c1cccc(OC[C@@H](O)CNC2COC3(CCN(S(=O)(=O)c4cc(-c5ccc(CN)cc5)ccc4Cl)CC3)C2)c1 (stereo partly drawn) [Compound 377, 3-((2S)-3-(8-(4′-(aminomethyl)-4-chlorobiphenyl-3-ylsulfonyl)-1-oxa-8-azaspiro[4.5]decan-3-ylamino)-2-hydroxypropoxy)-N-methylbenzenesulfonamide]"
13,7.68,"CNS(=O)(=O)c1cccc(OC[C@@H](O)CNC2COC3(CCN(S(=O)(=O)c4cc(-c5ccc(CN)cc5)ccc4C)CC3)C2)c1 (stereo partly drawn) [Compound 365, 3-((2S)-3-(8-(4′-(aminomethyl)-4-methylbiphenyl-3-ylsulfonyl)-1-oxa-8-azaspiro[4.5]decan-3-ylamino)-2-hydroxypropoxy)-N-methylbenzenesulfonamide]"
